Assay results published in the supplement of paper PMC10307832.

How the values were obtained:
Assay in all cases: relative viability (nuclei count vs DMSO), 5 days (fraction); higher = more cells survive
Elesclomol + Vorinostat = compound: CN(NC(=O)CC(=O)NN(C)C(=S)c1ccccc1)C(=S)c1ccccc1 [Elesclomol] + O=C(CCCCCCC(=O)Nc1ccccc1)NO [Vorinostat] (partner 1 µM)
Outline: (§1)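 Relative viability divides the nuclei count in treated wells by that in vehicle wells. Lung cancer cell lines were seeded in 1536-well plates, dosed by pin tool the next day, and fixed and stained after 5 days in one step with final 0.05% Triton X-100, 1% formaldehyde and 1 ug/ml Hoechst. Dosing was a single drug or a fixed anchor-drug dose plus five library-drug doses (not always all listed) in √10 steps, and values are medians of duplicate plates imaged at 4×.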

Elesclomol + OSI-027 = compound: CN(NC(=O)CC(=O)NN(C)C(=S)c1ccccc1)C(=S)c1ccccc1 [Elesclomol] + COc1cccc2cc(-c3nc([C@H]4CC[C@H](C(=O)O)CC4)n4ncnc(N)c34)[nH]c12 [OSI-027] (partner 0.5 µM)
Outline: as §1

Elesclomol + Trametinib = compound: CN(NC(=O)CC(=O)NN(C)C(=S)c1ccccc1)C(=S)c1ccccc1 [Elesclomol] + CC(=O)Nc1cccc(-n2c(=O)n(C3CC3)c(=O)c3c(Nc4ccc(I)cc4F)n(C)c(=O)c(C)c32)c1 [Trametinib] (partner 0.02 µM)
Outline: as §1

Elesclomol + AZD7762 = compound: CN(NC(=O)CC(=O)NN(C)C(=S)c1ccccc1)C(=S)c1ccccc1 [Elesclomol] + NC(=O)Nc1cc(-c2cccc(F)c2)sc1C(=O)N[C@H]1CCCNC1 [AZD7762] (partner 0.2 µM)
Outline: as §1

Elesclomol + Luminespib = compound: CN(NC(=O)CC(=O)NN(C)C(=S)c1ccccc1)C(=S)c1ccccc1 [Elesclomol] + CCNC(=O)c1noc(-c2cc(C(C)C)c(O)cc2O)c1-c1ccc(CN2CCOCC2)cc1 [Luminespib] (partner 0.01 µM)
Outline: as §1

Row | Cell Line | relative viability (Elesclomol + Vorinostat; first compound 0.003162 µM) | relative viability (Elesclomol + Vorinostat; first compound 0.01 µM) | relative viability (Elesclomol + Vorinostat; first compound 0.03162 µM) | relative viability (Elesclomol + Vorinostat; first compound 0.1 µM) | relative viability (Elesclomol + OSI-027; first compound 0.003162 µM) | relative viability (Elesclomol + OSI-027; first compound 0.01 µM) | relative viability (Elesclomol + OSI-027; first compound 0.03162 µM) | relative viability (Elesclomol + OSI-027; first compound 0.1 µM) | relative viability (Elesclomol + Trametinib; first compound 0.003162 µM) | relative viability (Elesclomol + Trametinib; first compound 0.01 µM) | relative viability (Elesclomol + Trametinib; first compound 0.03162 µM) | relative viability (Elesclomol + Trametinib; first compound 0.1 µM) | relative viability (Elesclomol + AZD7762; first compound 0.003162 µM) | relative viability (Elesclomol + AZD7762; first compound 0.01 µM) | relative viability (Elesclomol + AZD7762; first compound 0.03162 µM) | relative viability (Elesclomol + AZD7762; first compound 0.1 µM) | relative viability (Elesclomol + Luminespib; first compound 0.003162 µM) | relative viability (Elesclomol + Luminespib; first compound 0.01 µM) | relative viability (Elesclomol + Luminespib; first compound 0.03162 µM) | relative viability (Elesclomol + Luminespib; first compound 0.1 µM)
1 | NCI-H2085 | 0.835 | 0.783 | 0.451 | 0.308 | 0.919 | 0.727 | 0.476 | 0.268 | 0.608 | 0.434 | 0.207 | 0.174 | 1.04 | 0.875 | 0.394 | 0.25 | 0.421 | 0.393 | 0.321 | 0.248
2 | NCI-H2087 | 0.528 | 0.448 | 0.431 | 0.313 | 0.422 | 0.283 | 0.357 | 0.225 | 0.204 | 0.149 | 0.153 | 0.0863 | 1.23 | 0.767 | 0.589 | 0.279 | 0.158 | 0.189 | 0.139 | 0.0928
3 | NCI-H2126 | 0.852 | 0.642 | 0.745 | 0.577 | 0.826 | 0.637 | 0.455 | 0.246 | 0.554 | 0.555 | 0.497 | 0.557 | 1.02 | 0.972 | 0.95 | 0.929 | 0.883 | 0.801 | 0.338 | 0.325
4 | NCI-H2170 | 0.808 | 0.683 | 0.777 | 0.408 | 0.793 | 0.577 | 0.739 | 0.583 | 0.949 | 0.95 | 0.898 | 0.607 | 0.896 | 0.846 | 0.852 | 0.493 | 0.735 | 0.624 | 0.646 | 0.435
5 | NCI-H2342 | 0.732 | 0.8 | 0.757 | 0.771 | 0.648 | 0.583 | 0.395 | 0.301 | 0.877 | 0.839 | 0.756 | 0.616 | 0.385 | 0.461 | 0.4 | 0.441 | 0.665 | 0.551 | 0.391 | 0.322
6 | NCI-H2347 | 0.572 | 0.527 | 0.471 | 0.303 | 0.389 | 0.389 | 0.173 | 0.211 | 0.341 | 0.264 | 0.33 | 0.256 | 0.703 | 0.661 | 0.629 | 0.447 | 0.318 | 0.557 | 0.282 | 0.25
7 | NCI-H2405 | 0.933 | 0.415 | 0.314 | 0.276 | 0.651 | 0.473 | 0.339 | 0.272 | 0.687 | 0.468 | 0.295 | 0.272 | 0.692 | 0.576 | 0.269 | 0.281 | 0.684 | 0.554 | 0.265 | 0.299
8 | NCI-H3122 | 0.652 | 1.02 | 0.881 | 0.111 | 0.955 | 0.198 | 0.144 | 0.0943 | 0.23 | 0.21 | 0.216 | 0.0967 | 0.97 | 0.972 | 0.912 | 0.0974 | 0.083 | 0.113 | 0.0663 | 0.0832
9 | PC-3 [JPC-3] | 0.779 | 0.489 | 0.466 | 0.372 | 0.734 | 0.662 | 0.781 | 0.428 | 0.714 | 0.473 | 0.435 | 0.5 | 0.741 | 0.539 | 0.438 | 0.401 | 0.706 | 0.612 | 0.701 | 0.447
10 | PC-14 | 0.0807 | 0.0343 | 0.0162 | 0.0149 | 0.19 | 0.0399 | 0.0104 | 0.0138 | 0.206 | 0.0608 | 0.0204 | 0.0164 | 0.488 | 0.107 | 0.055 | 0.0324 | 0.11 | 0.0979 | 0.0814 | 0.0429
11 | RERF-LC-KJ | 0.445 | 0.406 | 0.473 | 0.256 | 0.406 | 0.372 | 0.242 | 0.188 | 0.753 | 0.536 | 0.572 | 0.28 | 1 | 0.868 | 0.741 | 0.297 | 0.656 | 0.418 | 0.34 | 0.457
12 | SW 900 | 0.522 | 0.345 | 0.234 | 0.111 | 0.615 | 0.287 | 0.121 | 0.0545 | 0.902 | 0.399 | 0.197 | 0.14 | 0.709 | 0.54 | 0.272 | 0.103 | 0.173 | 0.132 | 0.17 | 0.139
